The results in this text go back to US8217043B2, “Compounds and methods for their use” (Fibrogen, Inc., priority 2008, dated 2012).

For one experiment, the target named is T1, HIF-PH2 (EGLN1) (Homo sapiens, UniProt Q9GZT9).
T1 construct: made in house; host or cells: insect Hi5 cells
T1 sequence (Q9GZT9 whole entry, species assumed): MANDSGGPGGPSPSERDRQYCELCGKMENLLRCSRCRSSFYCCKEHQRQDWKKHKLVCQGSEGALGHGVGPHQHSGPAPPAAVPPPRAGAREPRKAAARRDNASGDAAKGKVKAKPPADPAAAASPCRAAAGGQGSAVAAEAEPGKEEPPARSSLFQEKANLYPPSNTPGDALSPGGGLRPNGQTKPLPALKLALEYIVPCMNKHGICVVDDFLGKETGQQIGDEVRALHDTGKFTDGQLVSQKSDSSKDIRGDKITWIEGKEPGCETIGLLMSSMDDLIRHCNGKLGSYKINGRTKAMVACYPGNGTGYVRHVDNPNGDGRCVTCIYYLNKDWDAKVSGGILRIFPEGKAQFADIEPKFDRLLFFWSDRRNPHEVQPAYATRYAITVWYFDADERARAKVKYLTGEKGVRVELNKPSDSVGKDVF
Description: HIF-PH assay (14CO2 capture, peptide-dependent turnover). In kind it is biochemical. The following applies: Concentration 50 μM. The text has this: Ketoglutaric acid α-[1-^14C]-sodium salt, alpha-ketoglutaric acid sodium salt, and HPLC purified peptide may be obtained from commercial sources, e.g., Perkin-Elmer (Wellesley Mass.), Sigma-Aldrich, and SynPep Corp. (Dublin Calif.), respectively. Peptides for use in the assay may be fragments of HIFα as described above or as disclosed in International Publication WO 2005/118836, incorporated by reference herein. HIF-PH, e.g., HIF-PH2 (EGLN1), can be expressed in, e.g., insect Hi5 cells, and partially purified, e.g., through a SP ion exchange chromatography column. Enzyme activity is determined by capturing ^14CO2 using an assay described by Kivirikko and Myllyla (1982, Methods Enzymol. 82:245-304). Assay reactions contain 50 mM HEPES (pH 7.4), 100 μM α-ketoglutaric acid sodium salt, 0.30 μCi/mL ketoglutaric acid α-[1-^14C]-sodium salt, 40 μM FeSO4, 1 mM ascorbate, 1541.8 units/mL Catalase, with or without 50 μM peptide substrate and various concentrations of compound of the invention. Reactions are initiated by addition of HIF-PH enzyme.
The peptide-dependent percent turnover is calculated by subtracting percent turnover in the absence of peptide from percent turnover in the presence of substrate peptide. Percent inhibition and IC50 are calculated using peptide-dependent percent turnover at given inhibitor concentrations. Calculation of IC50 values for each inhibitor is conducted using GraFit software (Erithacus Software Ltd., Surrey UK).
Representative compounds of the invention were analyzed using the HIF-PH assay described above. Table 1 presents enzyme inhibition data for exemplary compounds against HIF-PH2, a representative HIF prolyl hydroxylase. By inhibiting HIF prolyl hydroxylase, compounds of the invention stabilize HIFα, which then combines with HIFβ to form an active transcription factor that increases expression of various genes involved in numerous beneficial cellular processes.
A word on the inhibition: it is the share of the control response that was lost under treatment. Lower therefore signals little suppression. Compound `O=C(O)CNC(=O)c1c(O)c2cc(Cl)cn2n(Cc2ccccn2)c1=O` [Example 40, [(6-Chloro-4-hydroxy-2-oxo-1-pyridin-2-ylmethyl-1,2-dihydro-pyrrolo[1,2-b]pyridazine-3-carbonyl)-amino]-acetic acid] returned an inhibition at 50 µM of 95%.
`C[C@H](NC(=O)c1c(O)c2cc(Cl)cn2n(Cc2ccccn2)c1=O)C(=O)O` [Example 41, 2-(S)-[(6-Chloro-4-hydroxy-2-oxo-1-pyridin-2-ylmethyl-1,2-dihydro-pyrrolo[1,2-b]pyridazine-3-carbonyl)-amino]-propionic acid] yielded an inhibition at 50 µM of 91%.

The same experiment, now with this note: Concentration 67 μM.
`CC[C@H](NC(=O)c1c(O)c2cc(Cl)cn2n(Cc2ccc(Cl)cc2)c1=O)C(=O)O` [Example 30, 2-(S)-{[6-Chloro-1-(4-chloro-benzyl)-4-hydroxy-2-oxo-1,2-dihydro-pyrrolo[1,2-b]pyridazine-3-carbonyl]-amino}-butyric acid] yielded an inhibition at 67 µM of 94%.
Still for that read-out and setting: under `COc1ccc(Cn2c(=O)c(C(=O)NCC(=O)O)c(O)c3cc(Cl)cn32)cc1` [Example 31, {[6-Chloro-1-(4-methoxy-benzyl)-4-hydroxy-2-oxo-1,2-dihydro-pyrrolo[1,2-b]pyridazine-3-carbonyl]-amino}-acetic acid] stands 100%; under `COc1ccc(Cn2c(=O)c(C(=O)N[C@@H](C)C(=O)O)c(O)c3cc(Cl)cn32)cc1` [Example 32, 2-(S)-{[6-Chloro-1-(4-methoxy-benzyl)-4-hydroxy-2-oxo-1,2-dihydro-pyrrolo[1,2-b]pyridazine-3-carbonyl]-amino}-propionic acid], 97%; under `CC[C@H](NC(=O)c1c(O)c2cc(Cl)cn2n(Cc2ccc(OC)cc2)c1=O)C(=O)O` [Example 33, 2-(S)-{[6-Chloro-1-(4-methoxy-benzyl)-4-hydroxy-2-oxo-1,2-dihydro-pyrrolo[1,2-b]pyridazine-3-carbonyl]-amino}-butyric acid], 88%.
On the same count and under the same terms, under `CC[C@H](NC(=O)c1c(O)c2cc(Cl)cn2n(Cc2ccc(F)cc2)c1=O)C(=O)O` [Example 34, 2-(S)-{[6-Chloro-1-(4-fluoro-benzyl)-4-hydroxy-2-oxo-1,2-dihydro-pyrrolo[1,2-b]pyridazine-3-carbonyl]-amino}-butyric acid] stands 86%; under `C[C@H](NC(=O)c1c(O)c2cc(Cl)cn2n(Cc2ccc(-c3ccccc3)cc2)c1=O)C(=O)O` [Example 35, 2-(S)-[(1-Biphenyl-4-ylmethyl-6-chloro-4-hydroxy-2-oxo-1,2-dihydro-pyrrolo[1,2-b]pyridazine-3-carbonyl)-amino]-propionic acid], 100%.
The same measure, in the same setting: under `C[C@@H](NC(=O)c1c(O)c2cc(Cl)cn2n(Cc2ccc(-c3ccccc3)cc2)c1=O)C(=O)O` [Example 36, 2-(R)-{[6-Chloro-1-(4-phenyl-benzyl)-4-hydroxy-2-oxo-1,2-dihydro-pyrrolo[1,2-b]pyridazine-3-carbonyl]-amino}-propionic acid] stands 98%; under `O=C(O)CNC(=O)c1c(O)c2cc(-c3ccccc3)cn2n(Cc2ccc(C(F)(F)F)cc2)c1=O` [Example 37, {[4-Hydroxy-2-oxo-6-phenyl-1-(4-trifluoromethyl-benzyl)-1,2-dihydro-pyrrolo[1,2-b]pyridazine-3-carbonyl]-amino}-acetic acid], 99%; under `O=C(O)CNC(=O)c1c(O)c2cc(Cl)cn2n(Cc2cccnc2)c1=O` [Example 38, [(6-Chloro-4-hydroxy-2-oxo-1-pyridin-3-ylmethyl-1,2-dihydro-pyrrolo[1,2-b]pyridazine-3-carbonyl)-amino]-acetic acid], 99%.
Compound `C[C@H](NC(=O)c1c(O)c2cc(Cl)cn2n(Cc2cccnc2)c1=O)C(=O)O` [Example 39, 2-(S)-[(6-Chloro-4-hydroxy-2-oxo-1-pyridin-3-ylmethyl-1,2-dihydro-pyrrolo[1,2-b]pyridazine-3-carbonyl)-amino]-propionic acid] registered an inhibition at 67 µM of 97%.
